Test results as given in patent publication US20260193264A1, “BENZOYPARAZINE PYRAZINES AND THEIR USES” (FOGHORN THERAPEUTICS INC., priority 2022, published 2026).

What was measured:
[1] = biological target: T1, HiBiT-BRM fusion protein in stable HeLa cell line (Homo sapiens, UniProt P51531); assay: HiBiT-BRM cell-based degradation assay (Nano-Glo HiBiT Lytic Detection, 24 h); parameters: DC50: scale not given here; details: HeLa HiBiT-BRM cells; for DC50: read-out: BRM HiBit Degradation IC50; for BRM HiBit Degradation Maximum (%): top dose 30 μM
T1 construct: expressed in transfected cells
T1 sequence (P51531 whole entry, the tested form may be a part): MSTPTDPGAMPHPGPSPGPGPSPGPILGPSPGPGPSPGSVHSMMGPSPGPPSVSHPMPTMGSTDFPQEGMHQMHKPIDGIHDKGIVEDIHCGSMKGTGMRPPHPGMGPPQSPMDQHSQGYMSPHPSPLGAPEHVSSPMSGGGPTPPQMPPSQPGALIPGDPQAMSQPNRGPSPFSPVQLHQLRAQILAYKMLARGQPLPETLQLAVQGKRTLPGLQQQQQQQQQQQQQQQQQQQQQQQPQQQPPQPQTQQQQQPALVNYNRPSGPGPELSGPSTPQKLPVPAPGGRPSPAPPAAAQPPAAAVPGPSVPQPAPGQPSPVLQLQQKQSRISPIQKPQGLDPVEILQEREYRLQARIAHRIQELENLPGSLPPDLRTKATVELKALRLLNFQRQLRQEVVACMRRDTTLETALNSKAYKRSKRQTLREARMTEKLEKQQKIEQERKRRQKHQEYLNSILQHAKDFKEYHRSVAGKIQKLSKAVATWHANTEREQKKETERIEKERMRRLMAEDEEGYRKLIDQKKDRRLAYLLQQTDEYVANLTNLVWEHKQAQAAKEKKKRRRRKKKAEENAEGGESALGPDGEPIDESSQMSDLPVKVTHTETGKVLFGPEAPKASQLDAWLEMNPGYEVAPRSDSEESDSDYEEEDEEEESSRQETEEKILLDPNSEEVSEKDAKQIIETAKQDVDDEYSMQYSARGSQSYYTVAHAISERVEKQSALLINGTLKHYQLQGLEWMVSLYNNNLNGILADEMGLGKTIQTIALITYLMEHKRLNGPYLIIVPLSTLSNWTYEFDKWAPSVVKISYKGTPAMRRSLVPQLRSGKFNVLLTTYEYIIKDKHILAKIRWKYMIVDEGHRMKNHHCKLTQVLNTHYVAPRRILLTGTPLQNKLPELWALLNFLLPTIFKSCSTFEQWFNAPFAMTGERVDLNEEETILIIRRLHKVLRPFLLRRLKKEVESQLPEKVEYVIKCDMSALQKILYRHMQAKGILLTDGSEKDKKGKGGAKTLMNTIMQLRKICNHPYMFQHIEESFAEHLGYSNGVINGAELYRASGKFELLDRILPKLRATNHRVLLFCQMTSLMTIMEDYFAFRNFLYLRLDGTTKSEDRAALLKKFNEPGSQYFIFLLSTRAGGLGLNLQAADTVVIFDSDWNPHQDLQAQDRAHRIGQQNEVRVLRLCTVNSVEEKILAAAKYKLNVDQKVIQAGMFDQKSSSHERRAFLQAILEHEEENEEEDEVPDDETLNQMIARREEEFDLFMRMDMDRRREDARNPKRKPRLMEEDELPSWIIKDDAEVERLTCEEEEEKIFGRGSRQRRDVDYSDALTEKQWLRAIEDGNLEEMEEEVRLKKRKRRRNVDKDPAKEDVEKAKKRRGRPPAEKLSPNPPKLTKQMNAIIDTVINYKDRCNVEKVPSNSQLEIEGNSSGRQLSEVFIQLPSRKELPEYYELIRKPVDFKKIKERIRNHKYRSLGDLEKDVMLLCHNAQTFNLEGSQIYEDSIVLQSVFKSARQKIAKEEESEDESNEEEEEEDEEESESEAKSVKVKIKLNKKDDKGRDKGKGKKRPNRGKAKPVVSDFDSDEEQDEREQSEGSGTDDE
Method in brief: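 Percent degradation was scaled between DMSO-treated cells and cells given 2 μM of a known BRM/BRG1 degrader. Readout was NanoBiT luminescence after lytic detection. HeLa cells stably expressing HiBiT-BRM were dosed for 24 h, 10 points, 3-fold steps from 30 μM final, in duplicate.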

[2] = biological target: T2, HiBit-BRG1 fusion protein in stable HeLa cell line expressing HiBit-BRG1 and LgBit (Homo sapiens, UniProt P51532); assay: HiBiT-BRG1 cell-based degradation assay (Nano-Glo HiBiT, 24 h); details: HeLa HiBit-BRG1/LgBit cells; for Dmax / BRG1 HiBit Degradation Maximum (%): top dose 30 μM; for Dmax: read-out: BRG1 HiBit Degradation Maximum (%); for DC50: read-out: BRMG1 HiBit Degradation IC50
T2 construct: expressed in transfected cells
T2 sequence (P51532 whole entry, the tested form may be a part): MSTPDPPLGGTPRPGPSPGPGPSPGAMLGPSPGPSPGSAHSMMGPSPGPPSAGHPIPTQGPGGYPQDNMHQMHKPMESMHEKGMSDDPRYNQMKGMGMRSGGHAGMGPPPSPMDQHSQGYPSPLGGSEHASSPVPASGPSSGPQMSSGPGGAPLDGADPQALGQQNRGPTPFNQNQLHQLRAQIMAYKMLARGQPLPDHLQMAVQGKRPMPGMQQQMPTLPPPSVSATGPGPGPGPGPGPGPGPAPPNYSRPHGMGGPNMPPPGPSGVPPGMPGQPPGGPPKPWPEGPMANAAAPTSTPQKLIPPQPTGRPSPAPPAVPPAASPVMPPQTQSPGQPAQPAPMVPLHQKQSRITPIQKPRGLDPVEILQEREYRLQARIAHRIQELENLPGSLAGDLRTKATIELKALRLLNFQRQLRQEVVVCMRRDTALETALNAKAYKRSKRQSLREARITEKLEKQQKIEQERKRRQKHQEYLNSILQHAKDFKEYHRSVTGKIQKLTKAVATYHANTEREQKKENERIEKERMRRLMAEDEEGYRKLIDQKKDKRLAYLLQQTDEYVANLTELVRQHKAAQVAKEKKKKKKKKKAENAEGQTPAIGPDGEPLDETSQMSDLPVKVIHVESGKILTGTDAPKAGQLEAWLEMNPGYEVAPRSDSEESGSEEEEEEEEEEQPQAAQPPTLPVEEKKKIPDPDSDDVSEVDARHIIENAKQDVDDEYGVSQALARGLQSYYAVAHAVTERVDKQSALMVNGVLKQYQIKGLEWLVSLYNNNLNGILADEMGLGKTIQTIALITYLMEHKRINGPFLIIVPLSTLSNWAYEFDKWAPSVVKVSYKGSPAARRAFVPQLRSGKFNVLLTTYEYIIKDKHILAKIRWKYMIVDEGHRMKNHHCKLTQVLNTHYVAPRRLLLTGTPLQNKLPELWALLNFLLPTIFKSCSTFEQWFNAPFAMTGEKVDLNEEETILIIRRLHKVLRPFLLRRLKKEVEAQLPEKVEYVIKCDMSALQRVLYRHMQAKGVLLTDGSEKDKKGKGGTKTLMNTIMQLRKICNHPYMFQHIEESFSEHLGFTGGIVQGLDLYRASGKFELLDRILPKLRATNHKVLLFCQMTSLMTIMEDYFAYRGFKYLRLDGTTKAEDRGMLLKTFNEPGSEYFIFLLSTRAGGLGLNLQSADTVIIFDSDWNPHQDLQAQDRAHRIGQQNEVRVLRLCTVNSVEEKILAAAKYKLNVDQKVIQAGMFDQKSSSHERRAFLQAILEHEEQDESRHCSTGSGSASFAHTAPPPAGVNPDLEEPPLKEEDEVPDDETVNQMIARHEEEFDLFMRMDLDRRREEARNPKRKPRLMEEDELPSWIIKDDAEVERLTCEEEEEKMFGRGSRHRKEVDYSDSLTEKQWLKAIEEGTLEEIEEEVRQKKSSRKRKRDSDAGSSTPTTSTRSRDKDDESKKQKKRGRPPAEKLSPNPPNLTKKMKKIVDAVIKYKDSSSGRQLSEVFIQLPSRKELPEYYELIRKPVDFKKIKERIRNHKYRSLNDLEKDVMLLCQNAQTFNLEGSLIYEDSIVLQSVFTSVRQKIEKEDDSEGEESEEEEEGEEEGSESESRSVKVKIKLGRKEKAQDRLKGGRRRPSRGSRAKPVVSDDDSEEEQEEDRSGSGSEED
Method in brief: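 Degradation calculated from NanoBiT luminescence relative to DMSO-treated cells (high) and cells given 2 μM known BRM/BRG1 degrader (low). HeLa cells stably expressing HiBiT-BRG1 plus LgBiT were exposed to compound for 24 h before lytic HiBiT detection.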

| DC50 [1] [nM] | Dmax [2] [%] | DC50 [2] [nM] | SMILES | BRM HiBit Degradation Maximum (%) [1] | BRG1 HiBit Degradation Maximum (%) [2] |
| --- | --- | --- | --- | --- | --- |
| > 10 | < 50 |  | Cc1ncsc1-c1ccc([C@H](C)NC(=O)[C@@H]2C[C@@H](O)CN2C(=O)[C@@H](c2cc(-c3cnc(N4CCC(c5ccc6nnc(-c7ccccc7O)cc6c5)CC4)nc3)no2)C(C)C)cc1 [Compound 42] | A (“A” indicates maximum degradation ≥75%) |  |
| > 100 | < 50 |  | Cc1ncsc1-c1ccc([C@H](C)NC(=O)[C@@H]2C[C@@H](O)CN2C(=O)[C@H](c2cc(-c3cnc(N4CC(c5ccc6nnc(-c7ccccc7O)cc6c5Cl)C4)nc3)no2)C(C)C)cc1 [Compound 43] | A (“A” indicates maximum degradation ≥75%) |  |
| > 10 | < 50 |  | Cc1ncsc1-c1ccc([C@H](C)NC(=O)[C@@H]2C[C@@H](O)CN2C(=O)[C@@H](c2cc(-c3cnc(N4CC(c5ccc6nnc(-c7ccccc7O)cc6c5Cl)C4)nc3)no2)C(C)C)cc1 [Compound 44] | A (“A” indicates maximum degradation ≥75%) |  |
| < 10 | > 75 | > 10 | Cc1ncsc1-c1ccc([C@H](C)NC(=O)[C@@H]2C[C@@H](O)CN2C(=O)[C@@H](c2cc(N3CCC(C(=O)N4CC(c5ccc6cc(-c7ccccc7O)nnc6c5)C4)CC3)no2)C(C)C)cc1 [Compound 45] | A (“A” indicates maximum degradation ≥75%) |  |
| > 100 |  |  | Cc1ncsc1-c1ccc([C@H](C)NC(=O)[C@@H]2C[C@@H](O)CN2C(=O)[C@H](c2cc(-c3cnc(N4CCN(c5ccc6cc(-c7ccccc7O)nnc6c5)CC4)nc3)no2)C(C)C)cc1 [Compound 46] | A (“A” indicates maximum degradation ≥75%) | C (“C” indicates maximum degradation <50%) |
|  |  |  | Cc1ncsc1-c1ccc([C@H](C)NC(=O)[C@@H]2C[C@@H](O)CN2C(=O)[C@@H](c2cc(-c3cnc(N4CCN(c5ccc6cc(-c7ccccc7O)nnc6c5)CC4)nc3)no2)C(C)C)cc1 [Compound 47] | A (“A” indicates maximum degradation ≥75%) | C (“C” indicates maximum degradation <50%) |
| < 10 | > 75 | < 10 | Cc1ncsc1-c1ccc([C@H](C)NC(=O)[C@@H]2C[C@@H](O)CN2C(=O)[C@@H](c2cc(N3CC4(CC(c5ccc6nnc(-c7ccccc7O)cc6c5)C4)C3)no2)C(C)C)cc1 [Compound 48, (2S,4R)-4-hydroxy-1-((R)-2-(3-(6-(3-(2-hydroxyphenyl)cinnolin-6-yl)-2-azaspiro[3.3]heptan-2-yl)isoxazol-5-yl)-3-methylbutanoyl)-N-((S)-1-(4-(4-methylthiazol-5-yl)phenyl)ethyl)pyrrolidine-2-carboxamide] | A (“A” indicates maximum degradation ≥75%) |  |
| < 10 | > 75 | < 10 | Cc1ncsc1-c1ccc([C@H](C)NC(=O)[C@@H]2C[C@@H](O)CN2C(=O)[C@@H](c2cc(-c3cnc(N4CC[C@H](c5ccc6nnc(-c7ccccc7O)cc6c5)C4)nc3)no2)C(C)C)cc1 [Compound 49, (2S,4R)-4-hydroxy-1-((R)-2-(3-(2-((R)-3-(3-(2-hydroxyphenyl)cinnolin-6-yl)pyrrolidin-1-yl)pyrimidin-5-yl)isoxazol-5-yl)-3-methylbutanoyl)-N-((S)-1-(4-(4-methylthiazol-5-yl)phenyl)ethyl)pyrrolidine-2-carboxamide] | A (“A” indicates maximum degradation ≥75%) |  |
| < 10 | > 50 |  | Cc1ncsc1-c1ccc([C@H](C)NC(=O)[C@@H]2C[C@@H](O)CN2C(=O)[C@@H](c2cc(-c3cnc(N4CC[C@@H](c5ccc6nnc(-c7ccccc7O)cc6c5)C4)nc3)no2)C(C)C)cc1 [Compound 50, (2S,4R)-4-hydroxy-1-((R)-2-(3-(2-((S)-3-(3-(2-hydroxyphenyl)cinnolin-6-yl)pyrrolidin-1-yl)pyrimidin-5-yl)isoxazol-5-yl)-3-methylbutanoyl)-N-((S)-1-(4-(4-methylthiazol-5-yl)phenyl)ethyl)pyrrolidine-2-carboxamide] | A (“A” indicates maximum degradation ≥75%) |  |
